Measured values reported in US12516293B2, “Reagents and methods with Wnt agonists and bioactive lipids for generating and expanding cardiomyocytes” (The Board of Trustees of the Leland Stanford Junior …, priority 2018, dated 2026).

Tests used:
Assay type in all cases: cell-based, human
[1] = tested on: TCF/LEF; assay: TOPFlash TCF/LEF luciferase reporter in hiPSCs; conditions: treatment alone, 2 hours
Protocol: and day 30 hiPSC-CMs were replated in 96-well plates and cultured for 2-3 days before transfection with Lipofectamine (Invitrogen) and TOPFlash (TCF/LEF) luciferase Wnt signaling reporter plasmid (M50, Addgene) at 100 ng/well. After 48 hours, media was changed, and cells were subjected to different treatments for 2 hours before lysis and luciferase (Promega) luminescence was measured with a standard luminescence plate reader. […] It was studied whether S1P/LPA treatment of undifferentiated hiPS cells, either alone or in combination with CHIR, could increase the level of nuclear β-catenin. […] To examine whether the increase in nuclear β-catenin level results in an activation of Wnt signaling at the transcriptional level, hiPSCs were transfected with the previously described TOPFlash luciferase reporter plasmid^23 ([…] et al. 2003). This system provides a proportionate visualization of Wnt transcriptional activity using bioluminescence. Subsequently, the cells were treated with dimethyl sulfoxide (DMSO), CHIR, S1P/LPA, or a combination of S1P/LPA and CHIR. […] When S1P/LPA was combined with CHIR, the TCF/LEF-luciferase activity was further increased to more than 60-fold compared with DMSO control (FIG. 16C).

[2] = tested on: hiPSC-CMs; assay: Motion-derived contractility of day 30 hiPSC-CMs; conditions: day 30 hiPSC-CMs vs control
Source text: These studies illustrate an additional role for S1P/LPA to regulate cell cycle activity in well-differentiated hiPSC-CMs and synergize with β-catenin signaling to increase hiPSC-CM proliferation.

[3] = tested on: AKT1/2/3 and other kinases; assay: Phospho-kinase array and western blot in CHIR-treated hiPSC-CMs
Protocol: Kinase phosphorylation levels were screened with a Proteome Profiler Human Phospho-Kinase Array Kit (R&D Systems) containing 43 human kinases and total amounts of 2 proteins. Validation was performed with regular western blotting. Total protein expression was measured with a gel imager (Biorad) and processed with pixel intensity software (Biorad).

Cc1c[nH]c(-c2cnc(NCCNc3ccc(C#N)cn3)nc2-c2ccc(Cl)cc2Cl)n1 [CHIR99021]
TCF/LEF-luciferase activity, increase vs DMSO control [1]: ~40 fold
beating frequency or contractile force generation [2]: no significant difference
phosphorylation of HSP27 and p70S6K ([3]; CHIR): increased phosphorylation
phosphorylation of growth suppressor P27 ([3]; CHIR): subtle increase
AKT1/2/3 phosphorylation at T308 ([3]; screen of 43 kinases, CHIR): significant upregulation
active form of AKT (pAKT T308) ([3]; western blot, CHIR vs DMSO): rapidly increased
